For this data set, the system named is mouse liver microsomes, metabolic half-life. Kind of data set: qHTS Assay for Inhibitors of Bacillus subtilis Sfp phosphopantetheinyl transferase (PPTase): Mouse Liver Microsome Stability (Half Time). From the text: PPTases are responsible for the activation of a variety of pathogen-associated virulence factors. Among these compounds are toxins such as mycolactone from Mycobacterium ulcerans, siderophores such as vibriobactin from Vibrio cholerae or mycobactin from Mycobacterium tuberculosis, as well as the mycolic acids which form the waxy cell wall of Mycobacteria. The biosyntheses of these natural products are considered attractive targets for drug design. After a large qHTS and several follow-up assays, a small molecule was identified and this in vitro ADME assay serves to better characterize its properties.
This bioassay provides profiling data on mouse liver microsome stability.
NIH Chemical Genomics Center [NCGC]
NIH Molecular Libraries Probe Centers Network [MLPCN]
Assay Submitter (PI): Michale Burkart, University of California, San Diego
1uM of compound in incubated in mouse liver microsome; the reference compound is ketanserin. Compounds are incubated at 37 degrees C for different time periods: 0, 5, 15, 30, 45, and 60 minutes. Samples are analyzed with LC-MS/MS.

On to `COc1ccnc(NC(=S)N2CCN(c3ncc(C(F)(F)F)cc3Cl)CC2)c1`, for which the microsomal half-life is 49.5 min.

The record behind these values is PubChem BioAssay AID602479 (National Center for Advancing Translational Sciences (NCATS), 2012).
